{"source": "PubChem BioAssay AID651672", "about": "(The Scripps Research Institute Molecular Screening Center, 2012)", "note": "Values joined by “and” are separate entries in the source; they are usually repeats but may differ in a detail not shown here. Identical values can stand only once. Active and inactive are the calls of the source. The rule behind the calls is not given here."}
{"target": "Perilipin-1 (Homo sapiens) (UniProt O60240)", "sequence (O60240 whole entry, looked up, the tested form may be a part)": "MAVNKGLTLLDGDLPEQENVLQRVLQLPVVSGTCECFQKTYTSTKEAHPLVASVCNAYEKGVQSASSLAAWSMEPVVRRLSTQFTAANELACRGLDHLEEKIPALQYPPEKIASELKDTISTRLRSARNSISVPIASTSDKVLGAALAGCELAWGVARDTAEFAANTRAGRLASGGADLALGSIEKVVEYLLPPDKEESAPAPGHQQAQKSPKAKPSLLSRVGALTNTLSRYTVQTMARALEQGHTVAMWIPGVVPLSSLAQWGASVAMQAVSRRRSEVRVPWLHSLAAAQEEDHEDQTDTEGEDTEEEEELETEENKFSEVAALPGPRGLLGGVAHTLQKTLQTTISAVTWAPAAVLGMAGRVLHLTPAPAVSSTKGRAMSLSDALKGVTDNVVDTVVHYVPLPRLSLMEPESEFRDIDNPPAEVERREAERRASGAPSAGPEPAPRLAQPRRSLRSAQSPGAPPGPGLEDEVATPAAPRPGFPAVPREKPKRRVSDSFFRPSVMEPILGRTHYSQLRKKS", "assay": "ABHD5 and perilipin-1 interaction blockers – biochemical, luminescence, counter-screen for ABHD5-PLIN5 interaction inhibitor project, dose response (AID 651672);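 note: split Gaussia luciferase complementation between ABHD5 and PLIN1 fusion fragments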", "conditions": "ABHD5-PLIN1 interaction"}
{"smiles": "CC1CCN(S(=O)(=O)c2ccc(NC(=O)Cc3ccccc3)cc2)CC1", "IC50": "5330 nM"}
{"smiles": "CC(C)(C)NC(=O)C(c1ccnc2ccccc12)n1c(=O)c(-c2ccco2)nc2ccccc21", "note": "(centres undefined)", "IC50": "4290 nM"}
{"smiles": "CC(C)(C)NC(=O)C(c1cccc2ccccc12)n1c(=O)c(-c2ccco2)nc2ccccc21", "note": "(centres undefined)", "IC50": "2040 nM"}
{"smiles": "CCCc1nnc(NC(=O)c2nc(S(=O)(=O)Cc3cccc(C)c3)ncc2Cl)s1", "IC50": "2830 nM"}
{"smiles": "COc1ccc(NC(=O)C(c2cccc3ccccc23)n2c(=O)c(-c3ccco3)nc3ccccc32)cc1", "note": "(centres undefined)", "IC50": "inactive"}
{"smiles": "Cc1ccc2sc(N(CCCN(C)C)C(=O)CN3C(=O)c4ccccc4C3=O)nc2c1C", "IC50": "inactive"}
{"smiles": "CCCCCNC(=O)C(c1ccccc1F)n1c(=O)c(-c2ccco2)nc2ccccc21", "note": "(centres undefined)", "IC50": "1090 nM"}
{"smiles": "NC(=NCCCCCCN=C(N)/N=C(\\N)Nc1ccc(Cl)cc1)/N=C(\\N)Nc1ccc(Cl)cc1", "IC50": "2860 nM and 2310 nM"}
{"smiles": "COc1cc(C(C)=O)ccc1OCc1cn(CC(=O)c2ccc(O)cc2)nn1", "IC50": "4600 nM"}
{"smiles": "CCN(CC)CCC(C)OC(c1ccccc1)c1ccccc1", "note": "(centres undefined)", "IC50": "2600 nM"}
{"smiles": "Cc1cccc(C)c1NC(=O)C(c1ccnc2ccccc12)n1c(=O)c(-c2ccco2)nc2ccccc21", "note": "(centres undefined)", "IC50": "3320 nM"}
{"smiles": "O=C(/C=C/c1ccccc1)CC(O)(c1ccccc1)C(F)(F)C(F)F", "note": "(centres undefined)", "IC50": "821 nM"}
{"smiles": "Cc1ccc(CS(=O)(=O)c2ncc(Cl)c(C(=O)Nc3nnc(C(C)C)s3)n2)cc1", "IC50": "1710 nM"}
{"smiles": "O=C1CC(c2ccc(Cl)cc2)Oc2ccc(Cl)cc21", "note": "(centres undefined)", "IC50": "2950 nM"}
{"smiles": "CC(=O)Cc1cc(O)c2ccccc2c1OC(=O)c1ccc(Br)cc1", "IC50": "1600 nM"}
{"smiles": "Cc1cc(C)c(NC(=O)C[N+](C)(C)CC(O)COc2cccc3ccccc23)c(C)c1", "note": "(centres undefined)", "IC50": "7990 nM"}
{"smiles": "O=C1NC(=O)N(Cc2ccccc2)C(=O)/C1=C\\C=C\\c1ccco1", "IC50": "1820 nM"}
{"smiles": "CCOC(=O)c1c(C)oc2c1c(CN1CCN(CCO)CC1)c(O)c1ccccc12", "IC50": "1810 nM"}
{"smiles": "O=C(NCc1ccccc1)C(c1ccccc1)n1c(=O)c(-c2ccco2)nc2ccccc21", "note": "(centres undefined)", "IC50": "2500 nM"}
{"smiles": "O=C(NC1CCCCC1)C(c1cc2ccccc2o1)n1c(=O)c(-c2ccco2)nc2ccccc21", "note": "(centres undefined)", "IC50": "1290 nM"}
{"smiles": "CCOc1cc(N)c(Cl)cc1C(=O)NCC1CN(Cc2ccc(F)cc2)CCO1", "note": "(centres undefined)", "IC50": "1970 nM"}
{"smiles": "CC(=O)C1=C(c2cccc([N+](=O)[O-])c2)N(C(C)=O)n2c(C)nnc2S1", "IC50": "2470 nM"}
{"smiles": "Cc1ccc(C(=O)c2c(C)oc3c2C(=O)C(=O)c2ccccc2-3)cc1", "IC50": "5400 nM"}
{"smiles": "N#Cc1ccc(C(C(=O)Nc2ccc3c(c2)OCCO3)n2c(=O)c(-c3ccco3)nc3ccccc32)cc1", "note": "(centres undefined)", "IC50": "7220 nM"}
{"smiles": "C#CCN(C[C@@H]1[C@@H](OC(=O)NC2CCCC2)[C@@H](OC(=O)NC2CCCC2)Cn2c(=O)ccc(=O)n21)S(=O)(=O)c1ccc(C)cc1", "IC50": "4750 nM"}
{"smiles": "CC1=CC2C(C(O)CC3(C)C2CC(C)C32OCOC23COCO3)C2(C)C/C(=C\\O)C(=O)C=C12", "note": "(centres undefined)", "IC50": "3510 nM"}
{"smiles": "O=C(NC1CCCCC1)C(C1CC1)n1c(=O)c(-c2ccco2)nc2ccccc21", "note": "(centres undefined)", "IC50": "3110 nM"}
{"smiles": "Cc1ccc(CC2(OCCN(C)C)CCC(C(C)(C)C)CC2)cc1", "note": "(centres undefined)", "IC50": "9480 nM"}
{"smiles": "Cc1ccc(C(=O)/C=C/c2cc(Br)cc(Br)c2O)o1", "IC50": "5750 nM"}
{"smiles": "C#CCN(C[C@@H]1[C@@H](OC(=O)NCc2ccccc2F)[C@@H](OC(=O)NCc2ccccc2F)Cn2c(=O)ccc(=O)n21)S(=O)(=O)c1ccc(C)cc1", "IC50": "4510 nM"}
{"smiles": "CC(C)(C)NC(=O)C(c1ccc(C#N)cc1)n1c(=O)c(-c2ccco2)nc2ccccc21", "note": "(centres undefined)", "IC50": "1410 nM"}
{"smiles": "CCCCn1c(SCC(=O)NCc2ccco2)nnc1-c1ccoc1C", "IC50": "4710 nM"}
{"smiles": "O=C(O)CC(O)(CC(=O)O)C(=O)O", "IC50": "3710 nM"}
{"smiles": "CN(C)c1ccc(Cc2cc3c(O)ccc(O)c3cc(Cc3ccc(N(C)C)cc3)c2=O)cc1", "IC50": "2400 nM"}
{"smiles": "COC/C=C/C1=CC2=CC(=O)C(C)(OC(=O)C3CCCC3)C(=O)C2=CO1", "note": "(centres undefined)", "IC50": "2450 nM"}
{"smiles": "COc1ccc(/C=C\\C(=O)CC(O)(c2ccccc2)C(F)(F)F)cc1", "note": "(centres undefined)", "IC50": "2680 nM"}
{"smiles": "COc1ccc(C(C(=O)NC(C)(C)C)n2c(=O)c(-c3ccco3)nc3ccccc32)cc1", "note": "(centres undefined)", "IC50": "1820 nM"}
{"smiles": "O=C(/C(=C/c1ccccc1)n1cncn1)c1ccc(Cl)cc1Cl", "IC50": "2300 nM"}
{"smiles": "O=c1[nH]c(C2CCN(S(=O)(=O)c3ccc(S(=O)(=O)NC4CC4)cc3)CC2)nc2c1nnn2Cc1ccc(F)cc1", "IC50": "3560 nM"}
